Results: patent publication EP1808169B1, “Polyhydroxylated aromatic compounds for the treatment of amyloidosis and alpha-synuclein fibril diseases” (priority 1999, dated 2001)
Marks after values point to notes of the source that are not given here.

The molecules below were run on Aβ 1-42 amyloid fibrils (assay: Thioflavin T fluorometry: disassembly/disruption of pre-formed Aβ 1-42 amyloid fibrils). Details: Aβ 1-42:compound w/w ratio 1:1; 25 µM Aβ 1-42, 100µg/ml compound, overnight (~18 hours) at 37°C, pH 7.0; mean of triplicate ± standard deviation.
Type: biochemical
Method: For the first study, 1 mg of Aβ 1-42 (Bachem Inc., Torrance, CA, USA) was dissolved in 1.0 ml of double distilled water (1 mg/ml solution). 25 µM of Aβ 1-42 was then incubated overnight (~18 hours) at 37°C, in the absence or presence of 100µg/ml of the following compounds: 1) EDTA (Sigma Chemical Company, St. Louis, MO, USA), 2) myricetin (Acros, Somerville, New Jersey, USA), 3) exifone (Acros) 4) pyrogallol (Sigma), 5) tannic acid (Acros), 6) pyrocatechol (Acros), 7) quercetin (Sigma), 8) ellagic acid (Acros), 9) 1,2,4-benzenetriol (Acros), 10) 5-hydroxydopamine (Acros), 11) gallamide hydrate (Acros), 12) gallic acid (Sigma), 13) ethyl gallate (Acros), 14) quinic acid (Acros), 15) propyl gallate (Sigma), and 16) phloroglucide (Acros), each in the presence of 150 mM Tris HCl, 10 mM NaCl (pH 7.0) with 0.02% sodium azide. In this study, the Aβ 1-42:compound weight ratio was 1:1.
For the second study, 1 mg of Aβ 1-42 (Bachem) was dissolved in 1.0 ml of double distilled water (1 mg/ml solution). 25 µM of Aβ 1-42 was then incubated overnight (~18 hours) at 37°C, in the absence or presence of 50µg/ml of the following compounds: 1) gallic acid, 2) ethyl gallate, 3) quinic acid, 4) gallamide trihydrate, 5) ellagic acid, 6) propyl gallate, and 7) pyrogallol, each in the presence of 150 mM Tris HCl, 10 mM NaCl (pH 7.0) with 0.02% sodium azide. In this study, the Aβ 1-42:compound weight ratio was 2:1.
Thioflavin T is known to bind to fibrillar amyloid proteins, and an increase in fluorescence correlates with an increase in amyloid fibril formation, whereas a decrease in fluorescence correlates with a decrease in amyloid fibrils due to disassembly and/or disruption. The Alzheimer's Aβ protein (1-42) when placed in solution, such as distilled water, tends to spontaneously form amyloid fibrils. Using this sensitive assay, any decreases or increases in fluorescence was previously shown to correlate with a decrease or increase in the amount of amyloid fibrils (see the documents cited above), allowing one to identify and quantitate the extent of potential inhibitors and/or enhancers of Alzheimer's Aβ 1-42 amyloid fibrils.
To assess the effects of each compound on potential disassembly/ disruption of preformed Aβ 1-42 fibrils, 50 µl of Aβ 1-42 with or without test compounds (described above) were added to 1.2 ml of 100µM Thioflavin T (Sigma) in 50mM NaH2PO4 (pH 6.0) for fluorometry readings. […] Fluorescence emission at 482 nm was measured on a Turner instrument-model 450 fluorometer at an excitation wavelength of 450 nm. For each determination, the fluorometer was calibrated by zeroing in the presence of the Thioflavin T reagent alone, and by setting the 50 ng/ml riboflavin (Sigma Chemical Co., St. Louis, MO) in the Thioflavin T reagent to 1800 fluorescence units. All fluorescence determinations were based on these references and any fluorescence given off by any of the compounds in the presence of the Thioflavin T reagent was always subtracted from all pertinent readings.
For all fibrillogenesis studies utilizing Thioflavin T fluorometry, as disclosed herein, comparisons of amyloid protein in the presence or absence of test compounds were based on paired Student's t tests with data shown as the mean of triplicate measurements ± standard deviation.

Compared with `Oc1cc(O)cc(-c2c(O)cc(O)cc2O)c1` [Phloroglucide, phloroglucide], `O=C(c1cc(O)c(O)c(O)c1)c1ccc(O)c(O)c1O` [Exifone, exifone] is higher in “Fluorescence inhibition, %, at the Aβ 1-42:compound w/w ratios given” value: 30 ± 0.6% for the first, 93 ± 1.4% for the second.

Same assay, conditions: Aβ 1-42:compound w/w ratio 2:1; 25 µM Aβ 1-42, 50µg/ml compound, overnight (~18 hours) at 37°C, pH 7.0; mean of triplicate ± standard deviation

`CCOC(=O)c1cc(O)c(O)c(O)c1` [Ethyl gallate, ethyl gallate] and `CCCOC(=O)c1cc(O)c(O)c(O)c1` [Propyl gallate, propyl gallate] are within error of each other in “Fluorescence inhibition, %, at the Aβ 1-42:compound w/w ratios given” value: 30 ± 3.7% for the first, 38 ± 4.8% for the second.

Going from `Oc1cccc(O)c1O` [Pyrogallol, pyrogallol] to `NC(=O)c1cc(O)c(O)c(O)c1.O.O.O` [Gallamide trihydrate, gallamide trihydrate], the “Fluorescence inhibition, %, at the Aβ 1-42:compound w/w ratios given” value falls from 72 ± 3.8% to 60 ± 2.2%.

Compared with `O=c1oc2c(O)c(O)cc3c(=O)oc4c(O)c(O)cc1c4c23` [Ellagic acid, ellagic acid], `O=C(O)[C@]1(O)C[C@@H](O)[C@@H](O)[C@H](O)C1` [Quinic acid, quinic acid] is lower in “Fluorescence inhibition, %, at the Aβ 1-42:compound w/w ratios given” value: 62 ± 3.9% for the first, 0.5 ± 3.9 % for the second.

Same assay, conditions: result in words; 100µg/ml compound, 25 µM Aβ 1-42, weight ratio 1:1, overnight at 37°C

`O=C(O)CN(CCN(CC(=O)O)CC(=O)O)CC(=O)O` [EDTA, reference compound] was tested, and the “disassembly/disruption of Aβ 1-42 amyloid fibrils” value was “no significant disassembly/disruption”.

What follows are molecules tested on Aβ 1-40 amyloid fibrils (assay: Modified Congo red-Aβ spectrophotometric assay: disaggregation of pre-formed Aβ 1-40 fibrils (3 days incubation)). Details: Aβ:compound weight ratio 2:1; fibrillized Aβ 1-40 incubated with compound 3 days at 37°C in TBS pH 7.0; Δ absorbance at 540 nm; triplicate.
Type: biochemical
Method: In this study, a Congo red-Aβ spectrophotometric assay (Klunk et al., Anal. Biochem. 266:66-76, 1999) was modified to determine the effectiveness of polyhydroxylated aromatic compounds on the disaggregation of pre-formed Aβ 1-40 amyloid fibrils. For this assay, 1 mg of Aβ 1-40 (Bachem) was incubated for 4 days in distilled water at 37°C to spontaneously produce amyloid fibrils. 25pM of fibrillized Aβ 1-40 was then incubated in triplicate with various test compounds for 3 days at 37°C in Tris-buffered saline (TBS)(100 mM Tris; 50 mM NaCl; pH 7.0, with 0.02% sodium azide), at an Aβ:compound weight ratio of 2:1. Following incubation, 50µl of 360 µM Congo red (Sigma) in distilled water was then added to 250 µl of each incubation mixture, giving a final Aβ:Congo red molar ratio of 1:3. After 10 minutes, the absorbance at 405 nm (reference wavelength to account for the absorbance of Congo red alone at 540 nm) and 540 nm (sample absorbance where "sample" refers to Aβ alone, test compound alone, or Aβ plus test compound, all in the presence of Congo red) was determined using a Biorad Model 550 BLISA Plate Reader (Biorad, Hercules, CA, USA). The absorbance at wavelength 405 nm was automatically subtracted by the ELISA plate reader from the absorbance at wavelength 540 nm (difference is referred to as Δ absorbance)(see Klunk et al. cited above). Therefore, the Δ absorbance reading at 540 nm was proportional to the amount of aggregated Aβ left in solution (Klunk et al.).
For all experiments involving test compounds, the Δ absorbance reading at 540 nm of the test compound alone (in the absence of Aβ), was always subtracted from the corresponding Δ absorbance reading at 540 nm of the test compound in the presence of Aβ. Using this modification of the method of Klunk et al., the use of a greater final concentration of Congo red, i.e. 60µM instead of 14µM, in the presence of fibrillar Aβ gave an overall absorbance at 540 nm that was always below 1.0 Absorbance Unit (AU), and well within the linear absorbance range.
The following polyhydroxylated aromatic containing compounds were tested using the above described Congo red-Aβ spectrophotometric assay to determine their effectiveness on disaggregation of pre-formed Aβ 1-40 amyloid fibrils: 1) gallic acid, 2) ethyl gallate, 3) quinic acid, 4) gallamide trihydrate, 5) ellagic acid, 6) propyl gallate, and 7) pyrogallol.

`CCOC(=O)c1cc(O)c(O)c(O)c1` [Ethyl gallate, ethyl gallate] and `CCCOC(=O)c1cc(O)c(O)c(O)c1` [Propyl gallate, propyl gallate] are within error of each other in “Decrease in absorbance, %” value: 28 ± 5.0% for the first, 17 ± 7.3 % for the second.

First: Oc1cccc(O)c1O [Pyrogallol, pyrogallol]
Second: NC(=O)c1cc(O)c(O)c(O)c1.O.O.O [Gallamide trihydrate, gallamide trihydrate]
The “Decrease in absorbance, %” value of the first is higher: 63 ± 3.4% for the first, 31 ± 1.9% for the second.

In the case of `O=c1oc2c(O)c(O)cc3c(=O)oc4c(O)c(O)cc1c4c23` [Ellagic acid, ellagic acid], the “Decrease in absorbance, %” value is reported as 54 ± 2.8%.

In the case of `O=C(O)[C@]1(O)C[C@@H](O)[C@@H](O)[C@H](O)C1` [Quinic acid, quinic acid], the “Decrease in absorbance, %” value is reported as 0 + 5.0** %.

What follows are molecules tested against T1, human amylin (Homo sapiens, UniProt P10997) (assay: Thioflavin T fluorometry: disassembly/disruption of islet amyloid (amylin) fibrils). Details: 25 µM human amylin, 100µg/ml compound, amylin:compound weight ratio 1:1, overnight (~18 hours) at 37°C, pH 7.0; read-out: Fluorescence inhibition, %.
T1 construct: This amyloid protein involved consists of a 37 amino acid protein known as islet amyloid polypeptide or amylin; purchased Bachem
T1 sequence (P10997 34-70 limits assumed): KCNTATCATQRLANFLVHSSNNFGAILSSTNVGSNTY
Type: biochemical

Going from `O=c1c(O)c(-c2cc(O)c(O)c(O)c2)oc2cc(O)cc(O)c12` [Myricetin, myricetin] to `O=C(c1cc(O)c(O)c(O)c1)c1ccc(O)c(O)c1O` [Exifone, exifone], the inhibition at 100 µg/mL rises from 97.4 ± 0.3% to 99.1 ± 0.5%.

The molecules below were run against T1, human amylin (assay: Congo red staining of amylin fibrils on gelatin-coated slides (polarized light)). Details: result in words; amylin + compound after overnight incubation, compared with amylin alone.
Type: biochemical
Method: Following Thioflavin T fluorometry readings as described in Example 1, 5µl aliquots of amylin only, amylin + myricetin, amylin + exifone, and amylin + tannic acid were also taken, allowed to air dry overnight on gelatin-coated slides, and stained with Congo red as previously described (Castillo et al., Diabetes 47:612-620, 1998).

With `O=c1c(O)c(-c2cc(O)c(O)c(O)c2)oc2cc(O)cc(O)c12` [Myricetin, myricetin] the Congo red staining was “marked decrease in Congo red staining”.
For `O=C(c1cc(O)c(O)c(O)c1)c1ccc(O)c(O)c1O` [Exifone, exifone], the Congo red staining was “marked decrease in Congo red staining”.
